According to patent EP0216646B1, “N,N-dimethylethyl amine oxide derivative, process for its preparation and pharmaceutical compositions obtained” (Albert ROLLAND S.A. Société dite, priority 1985, dated 1987):

Assays:
Assay type in all cases: in vivo
[1] = acute toxicity in the mouse (median lethal dose); settings: in vivo; acute toxicity, mouse; read-out: dose léthale moyenne
Source text: (§1) Les sels de 2,2-bis phénoxy NN-diméthyl éthylamine sont décrits comme possédant des propriétés anti-dépressives.

[2] = apomorphine test (apomorphine-induced hypothermia)
Source text: (§2) Le N-oxyde de 2,2-bis phénoxy NN-diméthyl éthylamine et ses sels possèdent les propriétés caractéristiques des autres anti-dépresseurs, sur les tests pharmacologiques classiques. Ils inhibent l'effet hypothermisant de la réserpine, et de l'apomorphine, ils augmentent la toxicité de groupe induite par injection de yohimbine et ils antagonisent le test du désespoir chez la souris.

souris [3] = assay: acute toxicity in the mouse (median lethal dose)
Source text: as §1

souris [4] = assay: despair test in the mouse; settings: qualitative
Source text: as §2

[5] = reserpine-induced hypothermia test; settings: qualitative
Source text: as §2

[6] = yohimbine-induced group toxicity
Source text: as §2

[7] = compared with 2,2-bis phénoxy NN-diméthyl éthylamine

SMILES | LD50 [1] [mg/kg] | action antagoniste sur le test à l'apomorphine [2, 7] | effet hypothermisant de l'apomorphine ([2]; qualitative) | dose léthale moyenne (souris [3]; acute toxicity, mouse) | toxicité (souris [3]; qualitative statement) | test du désespoir chez la souris (souris [4]) | effet hypothermisant de la réserpine [5] | action positive vis-à-vis de la toxicité de groupe à la yohimbine [6, 7] | toxicité de groupe induite par injection de yohimbine ([6]; qualitative)
CN(C)CC(Oc1ccccc1)Oc1ccccc1 [2,2-bis phénoxy NN-diméthyl éthylamine, reference compound] | ~800 | – | – | – | – | – | – | – | –
C[N+](C)([O-])CC(Oc1ccccc1)Oc1ccccc1 [N-oxydede 2,2-bis phénoxy NN-diméthyl éthylamine] | – | nettement plus marquées | inhibent | il n'a pas été possible de déterminer | très faible | antagonisent | inhibent | nettement plus marquées | augmentent
